Data: US20250353873A1, “COMPOUNDS AND METHODS FOR MODULATING APOE EXPRESSION” (Ionis Pharmaceuticals, Inc., priority 2024, published 2025)
Strand notation (5' to 3'): a small letter for the sugar, then the base; units joined by * are phosphorothioate-linked, units joined directly phosphodiester-linked; [ ] holds rarer units or linkages, { } end groups; capitals alone tell only the bases. [ms] = mesyl phosphoramidate linkage; e = 2'-O-(2-methoxyethyl) (MOE); k = constrained ethyl (cEt); [5mC] = 5-methylcytosine; d = 2'-deoxy (DNA)

Columns and labels:
human APOE RNA [1] = test: Activity in APOE C57BL/6NTac-Apoeem7250 knock-in mice, single ICV bolus, 16 weeks (Example 12); assay type: in vivo; settings: single ICV bolus 300 μg, 16 weeks post treatment, normalized to mouse Ppia
Summary of the method: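 A single 300 μg intracerebroventricular dose was given, with PBS-treated mice as reference; cortical and spinal cord tissue was taken 16 weeks later. RT-qPCR quantified human APOE RNA, Ppia-normalized, expressed relative to PBS animals (% control).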

human APOE RNA [2] = test: Activity in APOE C57BL/6NTac-Apoeem7250 knock-in mice, single ICV bolus, 8 weeks (Example 11); assay type: in vivo; settings: single ICV bolus 300 μg, 8 weeks post treatment, normalized to mouse Ppia
Procedure: Modified oligonucleotides described above were tested in the APOE C57BL/6NTac-Apoeem7250 knock-in mouse model described above.
Each mouse received a single ICV bolus of 300 μg of modified oligonucleotide. A group of 3-4 mice received a single ICV bolus with PBS as a negative control.
Eight weeks post treatment, mice were sacrificed and RNA was extracted from cortical brain tissue and spinal cord for quantitative real-time RT-PCR analysis of RNA expression of APOE using human primer probe set RTS3073 (described herein above). APOE RNA levels were normalized to mouse Ppia. Mouse Ppia was amplified using primer probe set m_cyclo24 (described herein above). Results are presented as percent human APOE RNA relative to the amount of human APOE RNA in PBS treated animals, (% control). Each experiment is identified in separate tables below.

Row | Substance | APOE RNA (% control) Cortex (human APOE RNA [1]) | APOE RNA (% control) Spinal Cord (human APOE RNA [1]) | APOE RNA (% control) Cortex (human APOE RNA [2]) | APOE RNA (% control) Spinal Cord (human APOE RNA [2])
1 | 1681007: 5-10-5 MOE gapmer GGTGAATCTTTATTAAACTA, linkages zsssszsssszzszssszz (antisense eG[ms]eG*eT*eG*eA*dA[ms]dT*d[5mC]*dT*dT*dT[ms]dA[ms]dT*dT[ms]dA*eA*eA*e[5mC][ms]eT[ms]eA) [compound 1681007] | 96 % control | 67 % control | 71 % control | 47 % control
2 | 1693041: 5-10-5 MOE gapmer CTTGGTGAATCTTTATTAAA, linkages ssossszzzssssssosss (antisense e[5mC]*eT*eTeG*eG*dT*dG[ms]dA[ms]dA[ms]dT*d[5mC]*dT*dT*dT*dA*eTeT*eA*eA*eA) [compound 1693041] | 84 % control | 85 % control | 75 % control | 74 % control
3 | 1681003: 5-10-5 MOE gapmer GGTGAATCTTTATTAAACTA, linkages soooszsssszzszsooss (antisense eG*eGeTeGeA*dA[ms]dT*d[5mC]*dT*dT*dT[ms]dA[ms]dT*dT[ms]dA*eAeAe[5mC]*eT*eA) [compound 1681003] | 106 % control | 61 % control | 90 % control | 48 % control
4 | 1693052: 5-10-5 MOE gapmer TTGGTGAATCTTTATTAAAC, linkages sossszzzsssssssosss (antisense eT*eTeG*eG*eT*dG[ms]dA[ms]dA[ms]dT*d[5mC]*dT*dT*dT*dA*dT*eTeA*eA*eA*e[5mC]) [compound 1693052] | 91 % control | 85 % control | 65 % control | 79 % control
5 | 1693050: 5-10-5 MOE gapmer TTGGTGAATCTTTATTAAAC, linkages soosszzzsssssssosss (antisense eT*eTeGeG*eT*dG[ms]dA[ms]dA[ms]dT*d[5mC]*dT*dT*dT*dA*dT*eTeA*eA*eA*e[5mC]) [compound 1693050] | 100 % control | 63 % control | 77 % control | 63 % control
6 | 1693082: 6-10-4 MOE gapmer TTGGTGAATCTTTATTAAAC, linkages ssssoozzszssszsssss (eT*eT*eG*eG*eTeGdA[ms]dA[ms]dT*d[5mC][ms]dT*dT*dT*dA[ms]dT*dT*eA*eA*eA*e[5mC]) [compound 1693082] | 81 % control | 72 % control | 113 % control | 54 % control
7 | 1693048: 5-10-5 MOE gapmer CTTGGTGAATCTTTATTAAA, linkages ssssszzzzssssszosss (antisense e[5mC]*eT*eT*eG*eG*dT[ms]dG[ms]dA[ms]dA[ms]dT*d[5mC]*dT*dT*dT*dA[ms]eTeT*eA*eA*eA) [compound 1693048] | 105 % control | 71 % control | 97 % control | 87 % control
8 | 1652903: 6-10-4 MOE gapmer ACTTGGTGAATCTTTATTAA, linkages sooooossssssssssoss (antisense eA*e[5mC]eTeTeGeGdT*dG*dA*dA*dT*d[5mC]*dT*dT*dT*dA*eTeT*eA*eA) [compound 1652903] | 87 % control | 39 % control | 49 % control | 19 % control
9 | 1693084: 6-10-4 MOE gapmer TTGGTGAATCTTTATTAAAC, linkages ssssszzzszsszzsssss (eT*eT*eG*eG*eT*eG[ms]dA[ms]dA[ms]dT*d[5mC][ms]dT*dT*dT[ms]dA[ms]dT*dT*eA*eA*eA*e[5mC]) [compound 1693084] | 89 % control | 86 % control | 72 % control | 115 % control
10 | 1681006: 5-10-5 MOE gapmer GGTGAATCTTTATTAAACTA, linkages ssssszsssszzszzssss (antisense eG*eG*eT*eG*eA*dA[ms]dT*d[5mC]*dT*dT*dT[ms]dA[ms]dT*dT[ms]dA[ms]eA*eA*e[5mC]*eT*eA) [compound 1681006] | 120 % control | 80 % control | 85 % control | 71 % control
11 | 1681004: 5-10-5 MOE gapmer GGTGAATCTTTATTAAACTA, linkages ssooszsssszzszsooss (antisense eG*eG*eTeGeA*dA[ms]dT*d[5mC]*dT*dT*dT[ms]dA[ms]dT*dT[ms]dA*eAeAe[5mC]*eT*eA) [compound 1681004] | 127 % control | 61 % control | 120 % control | 89 % control
12 | 1693045: 5-10-5 MOE gapmer CTTGGTGAATCTTTATTAAA, linkages ssssozzzzssssssssss (antisense e[5mC]*eT*eT*eG*eGdT[ms]dG[ms]dA[ms]dA[ms]dT*d[5mC]*dT*dT*dT*dA*eT*eT*eA*eA*eA) [compound 1693045] | 93 % control | 60 % control | 88 % control | 86 % control
13 | 1693047: 5-10-5 MOE gapmer CTTGGTGAATCTTTATTAAA, linkages sssoszzzzssssszosss (antisense e[5mC]*eT*eT*eGeG*dT[ms]dG[ms]dA[ms]dA[ms]dT*d[5mC]*dT*dT*dT*dA[ms]eTeT*eA*eA*eA) [compound 1693047] | 97 % control | 71 % control | 78 % control | 77 % control
14 | 1809690: mixed MOE/cEt gapmer CTTGGTGAATCTTTATTAA, sugar eeeekddddddddddkkek, linkages sosssszzzssssszoss (e[5mC]*eTeT*eG*kG*dT*dG[ms]dA[ms]dA[ms]dT*d[5mC]*dT*dT*dT*dA[ms]kTkT*eA*kA) [compound 1809690] |  |  | 26 % control | 24 % control
15 | 1652914: 5-10-5 MOE gapmer GGTGAATCTTTATTAAACTA, linkages soooszzssssssszooss (antisense eG*eGeTeGeA*dA[ms]dT[ms]d[5mC]*dT*dT*dT*dA*dT*dT*dA[ms]eAeAe[5mC]*eT*eA) [compound 1652914] |  |  | 108 % control | 43 % control
16 | 1652918: 6-10-4 MOE gapmer GGTGAATCTTTATTAAACTA, linkages sooooozzzsssssssoss (antisense eG*eGeTeGeAeAdT[ms]d[5mC][ms]dT[ms]dT*dT*dA*dT*dT*dA*dA*eAe[5mC]*eT*eA) [compound 1652918] |  |  | 91 % control | 47 % control
17 | 1809744: mixed MOE/cEt gapmer CTTGGTGAATCTTTATTAAAC, sugar eeeekkddddddddddeeeee, linkages zsoooszzsssssszsoosz (e[5mC][ms]eT*eTeGkGkT*dG[ms]dA[ms]dA*dT*d[5mC]*dT*dT*dT*dA[ms]dT*eTeAeA*eA[ms]e[5mC]) [compound 1809744] |  |  | 19 % control | 11 % control
18 | 1652916: 5-10-5 MOE gapmer GGTGAATCTTTATTAAACTA, linkages soooszzzsssssszooss (antisense eG*eGeTeGeA*dA[ms]dT[ms]d[5mC][ms]dT*dT*dT*dA*dT*dT*dA[ms]eAeAe[5mC]*eT*eA) [compound 1652916] |  |  | 128 % control | 49 % control
19 | 1652911: 5-10-5 MOE gapmer GGTGAATCTTTATTAAACTA, linkages sooosszzzssssssooss (antisense eG*eGeTeGeA*dA*dT[ms]d[5mC][ms]dT[ms]dT*dT*dA*dT*dT*dA*eAeAe[5mC]*eT*eA) [compound 1652911] |  |  | 130 % control | 57 % control
